{
  "source": "patent US20250328351A1",
  "about": "“CARBONIC ANHYDRASE INHIBITORS AND ANTIBIOTICS AGAINST MULTIDRUG RESISTANT BACTERIA” (Purdue Research Foundation, priority 2018, published 2025)",
  "format_in_all_cases": "cell-based",
  "key": {"[1]": {"system": "Mutant-7 of Enterococcus fecalis NR 31975", "experiment": "microbe, parasite or virus in culture"}, "[2]": {"system": "Mutant-6 of Enterococcus fecalis NR 31975", "experiment": "microbe, parasite or virus in culture"}, "[3]": {"system": "Bifidobacterium breve JCP7499 HM 1120", "experiment": "MIC against human normal gut microbiota", "conditions": "JCP7499HM1120, Table 3, BHIS broth, anaerobic, 48 hours, read-out: MIC", "outline": "(§1)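 Compounds were serially diluted against ~5×10^5 CFU/ml inocula for 48 h at 37° C. Bacteroides and Bifidobacterium were tested in BHIS broth anaerobically, Lactobacillus in MRS broth under 5% CO2.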"}, "[4]": {"system": "Lactobacillus casei ATCC 334", "experiment": "MIC against human normal gut microbiota", "conditions": "Lacticaseibacillus casei, ATCC334; Table 3; MRS broth, 5% CO2, 48 hours", "outline": "as §1"}, "[5]": {"system": "Bacteroides dorei CL02T12C06 HM-719", "experiment": "MIC against human normal gut microbiota", "conditions": "Phocaeicola dorei; Table 3; BHIS broth, anaerobic, 48 hours; read-out: MIC", "outline": "as §1"}, "[6]": {"system": "Bifidobacterium longum subsp. Longum 44B HM 845", "experiment": "MIC against human normal gut microbiota", "conditions": "Table 3, BHIS broth, anaerobic, 48 hours", "outline": "as §1"}, "[7]": {"system": "Lactobacillus gasseri EX336960VC03 HM-400", "experiment": "MIC against human normal gut microbiota", "conditions": "Table 3, MRS broth, 5% CO2, 48 hours", "outline": "as §1"}, "[8]": {"system": "Bacteroides fragilis CL07T00C01 HM-709", "experiment": "MIC against human normal gut microbiota", "conditions": "Table 3, BHIS broth, anaerobic, 48 hours, read-out: MIC", "outline": "as §1"}, "[9]": {"system": "Mutant-3 of Enterococcus fecalis NR 31975", "experiment": "microbe, parasite or virus in culture"}, "[10]": {"system": "Mutant-12 of Enterococcus fecalis NR 31975", "experiment": "microbe, parasite or virus in culture"}, "[11]": {"system": "Staphylococcus epidermidis NRS 101", "experiment": "MIC, broth microdilution (CLSI)", "conditions": "NRS101, Table 2, TSB", "description": "(§2) The minimum inhibitory concentrations (MICs) of the compounds and control drugs were determined using the broth microdilution method, according to guidelines outlined by the Clinical and Laboratory Standards Institute (CLSI)^1. Staphylococci strains were grown aerobically overnight on tryptone soya agar plates at 37° C., afterwards a bacterial solution equivalent to 0.5 McFarland standard was prepared and diluted in tryptone soy broth (TSB) to achieve a bacterial concentration of about 5×10^5 CFU/mL and seeded in 96-well well plates. Compounds and control drugs were added in the first row of the 96-well plates and serially diluted along the plates. Plates were then incubated aerobically at 37° C. for 18-20 hours. MICs reported in Table 2 are the minimum concentration of the compounds/control drugs that could inhibit completely the visual growth of the bacteria."}, "[12]": {"system": "MRSA NRS 384 (MRSA USA300)", "experiment": "MIC, broth microdilution (CLSI)", "conditions": "Staphylococcus aureus; Table 2; TSB", "description": "as §2"}, "[13]": {"system": "Enterococcus faecalis S613 HM-334", "experiment": "MIC, broth microdilution (CLSI)", "conditions": "Enterococcus faecalis, read-out: MIC"}},
  "note": "Like-named read-outs stand apart in the source and are kept apart here.",
  "data": [
    {"smiles": "CC(C)=CC(=O)Nc1nnc(S(N)(=O)=O)s1", "note": "[CAI0016, 3-Methyl-N-(5-sulfamoyl-1,3,4-thiadiazol-2-yl)but-2-enamide]", "values": [
      {"measurement": "MIC", "setting": "[1]", "result": 4, "unit": "µg/mL"},
      {"measurement": "MIC", "setting": "[2]", "result": 16, "unit": "µg/mL"},
      {"measurement": "MIC", "setting": "[3]", "result": "> 64", "unit": "µg/mL"},
      {"measurement": "MIC", "setting": "[4]", "result": "> 64", "unit": "µg/mL"},
      {"measurement": "MIC", "setting": "[5]", "result": "> 64", "unit": "µg/mL"},
      {"measurement": "MIC", "setting": "[6]", "result": "> 64", "unit": "µg/mL"},
      {"measurement": "MIC", "setting": "[7]", "result": "> 64", "unit": "µg/mL"},
      {"measurement": "MIC", "setting": "[8]", "result": "> 64", "unit": "µg/mL"},
      {"measurement": "MIC", "setting": "[9]", "result": 4, "unit": "µg/mL"},
      {"measurement": "MIC", "setting": "[10]", "result": 8, "unit": "µg/mL"},
      {"measurement": "MIC", "setting": "[11]", "result": "> 64", "unit": "µg/mL"},
      {"measurement": "MIC", "setting": "[12]", "result": "> 64", "unit": "µg/mL"},
      {"measurement": "MIC", "setting": "[13]; S613HM334, Table 1, TSB", "result": 0.5, "unit": "µg/mL"},
      {"measurement": "MIC", "setting": "[13]; S613HM334, Table 6, TSB in presence of 4% human serum albumin", "result": "> 256", "unit": "µg/mL"},
      {"measurement": "MIC", "setting": "[13]; S613HM334, Table 7, TSB", "result": 0.25, "unit": "µg/mL"}
    ]}
  ]
}
